Data from patent US20250360145A1, “CSF-1R INHIBITORS AND USES THEREOF” (Myrobalan Therapeutics, Inc., priority 2022, published 2025).
Read-outs that look alike come from different tables or passages of the source.

Key:
CSF-1R = CSF-1R (Homo sapiens (Human), UniProt P07333); experiment: Biochemical HTRF kinase assay, CSF-1R; settings: recombinant human CSF-1R;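 further: enzyme incubated with inhibitor plus a substrate and ATP mix for one hour at room temperature before HTRF detection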
c-Kit = c-Kit (Homo sapiens (Human), UniProt P10721); experiment: Biochemical HTRF kinase assay, c-Kit; settings: for IC50: recombinant human protein, read-out: cKit IC50; for cKit Fold: selectivity: IC50 of cKit as multiple of IC50 of CSF-1R;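 on all read-outs here: enzyme reaction with substrate and ATP run in 384-well plates for 1 hour at room temperature, kinase activity detected by HTRF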
c-Kit, sequence (P10721 26-976): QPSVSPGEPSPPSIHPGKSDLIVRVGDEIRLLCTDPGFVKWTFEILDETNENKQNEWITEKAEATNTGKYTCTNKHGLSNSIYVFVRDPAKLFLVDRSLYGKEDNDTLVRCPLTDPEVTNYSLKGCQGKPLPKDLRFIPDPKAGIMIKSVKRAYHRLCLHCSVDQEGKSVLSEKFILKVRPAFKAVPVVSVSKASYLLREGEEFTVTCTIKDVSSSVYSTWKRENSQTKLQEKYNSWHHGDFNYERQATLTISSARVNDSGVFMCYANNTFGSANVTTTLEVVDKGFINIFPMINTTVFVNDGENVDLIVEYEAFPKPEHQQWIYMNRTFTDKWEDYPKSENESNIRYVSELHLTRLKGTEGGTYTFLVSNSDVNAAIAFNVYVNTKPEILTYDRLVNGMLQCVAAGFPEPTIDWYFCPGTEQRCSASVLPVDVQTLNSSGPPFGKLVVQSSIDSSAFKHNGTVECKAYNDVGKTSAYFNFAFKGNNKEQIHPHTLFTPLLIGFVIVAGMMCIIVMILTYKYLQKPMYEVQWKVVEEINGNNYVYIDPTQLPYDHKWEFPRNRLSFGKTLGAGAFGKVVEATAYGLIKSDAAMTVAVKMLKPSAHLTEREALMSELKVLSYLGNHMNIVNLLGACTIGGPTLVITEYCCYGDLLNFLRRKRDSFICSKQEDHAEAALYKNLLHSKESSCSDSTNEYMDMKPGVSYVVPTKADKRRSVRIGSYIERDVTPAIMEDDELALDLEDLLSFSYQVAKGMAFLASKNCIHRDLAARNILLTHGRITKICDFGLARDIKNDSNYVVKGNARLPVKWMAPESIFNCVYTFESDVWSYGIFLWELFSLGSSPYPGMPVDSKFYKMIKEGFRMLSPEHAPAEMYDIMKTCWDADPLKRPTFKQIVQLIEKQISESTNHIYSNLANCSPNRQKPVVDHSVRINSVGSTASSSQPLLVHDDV

FLT3 = FLT3 (Homo sapiens (Human), UniProt P36888); experiment: Biochemical HTRF kinase assay, FLT3; settings: for IC50: recombinant human protein; for FLT3 Fold: selectivity: IC50 of FLT3 as multiple of IC50 of CSF-1R
FLT3, sequence (P36888 27-993): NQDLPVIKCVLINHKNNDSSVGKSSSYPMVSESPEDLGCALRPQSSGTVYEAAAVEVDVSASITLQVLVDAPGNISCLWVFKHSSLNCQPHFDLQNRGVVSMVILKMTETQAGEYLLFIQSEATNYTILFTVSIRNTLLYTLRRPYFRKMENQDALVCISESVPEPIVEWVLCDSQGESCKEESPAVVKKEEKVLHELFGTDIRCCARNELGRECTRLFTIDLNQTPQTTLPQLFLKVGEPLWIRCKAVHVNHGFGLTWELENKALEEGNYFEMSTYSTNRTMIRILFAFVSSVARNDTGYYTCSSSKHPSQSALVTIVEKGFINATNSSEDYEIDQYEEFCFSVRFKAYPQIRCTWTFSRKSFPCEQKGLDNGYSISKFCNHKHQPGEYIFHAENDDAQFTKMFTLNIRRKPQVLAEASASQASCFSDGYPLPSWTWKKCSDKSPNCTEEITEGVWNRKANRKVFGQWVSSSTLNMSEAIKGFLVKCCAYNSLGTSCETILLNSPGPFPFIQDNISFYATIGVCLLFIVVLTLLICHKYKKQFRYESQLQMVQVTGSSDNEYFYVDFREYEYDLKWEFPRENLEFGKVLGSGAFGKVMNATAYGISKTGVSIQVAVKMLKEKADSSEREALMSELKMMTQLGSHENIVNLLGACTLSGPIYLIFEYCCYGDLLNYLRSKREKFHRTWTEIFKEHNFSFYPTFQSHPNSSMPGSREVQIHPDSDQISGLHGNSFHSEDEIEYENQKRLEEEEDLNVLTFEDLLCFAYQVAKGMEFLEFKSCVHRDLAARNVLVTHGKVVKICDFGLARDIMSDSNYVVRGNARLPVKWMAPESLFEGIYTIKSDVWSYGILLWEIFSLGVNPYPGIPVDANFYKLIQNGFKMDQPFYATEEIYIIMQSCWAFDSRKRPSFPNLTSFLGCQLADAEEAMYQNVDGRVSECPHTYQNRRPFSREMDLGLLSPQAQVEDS

PDGFRβ = PDGFRβ (Homo sapiens (Human), UniProt P09619); experiment: Biochemical HTRF kinase assay, PDGFRβ; settings: for IC50: recombinant human protein, read-out: PDGFR-1β IC50; for PDGFR-1β Fold: selectivity: IC50 of PDGFR-1β as multiple of IC50 of CSF-1R;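 on all read-outs here: kinase reaction with substrate/ATP mix run 1 h at room temperature in 384-well format, HTRF signal detection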
PDGFRβ, sequence (P09619 33-1106): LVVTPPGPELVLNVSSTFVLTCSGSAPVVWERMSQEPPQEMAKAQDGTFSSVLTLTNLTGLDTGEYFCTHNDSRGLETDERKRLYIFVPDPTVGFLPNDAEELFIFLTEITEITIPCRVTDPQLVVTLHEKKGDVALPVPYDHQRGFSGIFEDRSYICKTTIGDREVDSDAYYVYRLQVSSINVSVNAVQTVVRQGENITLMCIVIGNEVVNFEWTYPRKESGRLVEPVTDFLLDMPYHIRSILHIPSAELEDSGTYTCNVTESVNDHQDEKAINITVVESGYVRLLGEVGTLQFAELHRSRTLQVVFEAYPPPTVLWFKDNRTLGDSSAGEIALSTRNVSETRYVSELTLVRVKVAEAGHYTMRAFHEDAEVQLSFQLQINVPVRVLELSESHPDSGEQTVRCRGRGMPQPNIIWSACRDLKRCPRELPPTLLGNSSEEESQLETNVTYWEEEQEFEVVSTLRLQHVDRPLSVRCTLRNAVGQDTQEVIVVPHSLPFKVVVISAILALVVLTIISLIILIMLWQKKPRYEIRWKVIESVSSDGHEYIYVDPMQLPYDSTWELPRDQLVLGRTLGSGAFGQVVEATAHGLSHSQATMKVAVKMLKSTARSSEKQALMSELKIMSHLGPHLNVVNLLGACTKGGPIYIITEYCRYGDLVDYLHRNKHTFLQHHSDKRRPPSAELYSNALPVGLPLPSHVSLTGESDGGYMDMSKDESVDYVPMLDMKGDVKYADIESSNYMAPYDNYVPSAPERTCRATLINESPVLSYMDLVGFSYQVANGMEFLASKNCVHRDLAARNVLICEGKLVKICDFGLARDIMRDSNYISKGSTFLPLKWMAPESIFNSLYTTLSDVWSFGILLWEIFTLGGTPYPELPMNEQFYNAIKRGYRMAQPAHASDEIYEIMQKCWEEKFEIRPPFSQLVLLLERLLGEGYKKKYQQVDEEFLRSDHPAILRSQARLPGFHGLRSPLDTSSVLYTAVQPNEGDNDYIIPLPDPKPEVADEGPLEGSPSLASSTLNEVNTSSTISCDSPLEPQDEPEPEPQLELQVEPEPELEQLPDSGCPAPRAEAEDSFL

[1] = system: Ba/F3_CSF-1R (stably expressing human CSF-1R kinase); experiment: Cell proliferation assay, Ba/F3_CSF-1R; assay type: cell-based; settings: Ba/F3_CSF-1R cells, 72 hours treatment, read-out: CSF-1R BaF3 EC50
EOC2 cell = experiment: Cell proliferation assay, EOC2; assay type: cell-based, mouse; settings: EOC2 cells, 72 hours treatment, read-out: ECO2 EC50

CSF-1R, sequence (P07333 20-972): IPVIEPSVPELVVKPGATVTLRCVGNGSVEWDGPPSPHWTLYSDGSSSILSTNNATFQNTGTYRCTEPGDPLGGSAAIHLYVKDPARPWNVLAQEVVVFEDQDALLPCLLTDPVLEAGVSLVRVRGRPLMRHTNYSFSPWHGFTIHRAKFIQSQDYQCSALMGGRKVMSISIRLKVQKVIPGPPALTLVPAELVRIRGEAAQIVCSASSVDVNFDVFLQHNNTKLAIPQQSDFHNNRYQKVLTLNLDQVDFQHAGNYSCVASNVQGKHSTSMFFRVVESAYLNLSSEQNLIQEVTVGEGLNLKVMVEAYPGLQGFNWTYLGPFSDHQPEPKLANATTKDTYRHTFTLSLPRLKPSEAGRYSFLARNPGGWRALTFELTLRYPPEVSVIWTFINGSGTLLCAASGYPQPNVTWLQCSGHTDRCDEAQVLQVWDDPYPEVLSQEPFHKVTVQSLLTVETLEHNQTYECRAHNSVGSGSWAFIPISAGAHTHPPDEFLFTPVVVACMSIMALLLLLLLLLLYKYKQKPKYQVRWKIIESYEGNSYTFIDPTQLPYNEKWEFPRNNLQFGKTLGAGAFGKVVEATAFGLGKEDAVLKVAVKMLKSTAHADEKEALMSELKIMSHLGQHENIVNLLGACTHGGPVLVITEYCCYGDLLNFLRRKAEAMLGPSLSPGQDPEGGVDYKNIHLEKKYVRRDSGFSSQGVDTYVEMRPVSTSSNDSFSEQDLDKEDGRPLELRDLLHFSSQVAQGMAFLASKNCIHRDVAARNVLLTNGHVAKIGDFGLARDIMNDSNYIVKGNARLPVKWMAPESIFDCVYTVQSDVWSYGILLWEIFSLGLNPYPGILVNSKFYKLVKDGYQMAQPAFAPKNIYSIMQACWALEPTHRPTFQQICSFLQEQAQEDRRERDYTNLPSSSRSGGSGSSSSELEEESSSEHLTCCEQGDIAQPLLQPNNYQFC

Structure (SMILES)	IC50 (CSF-1R; Table 2)	IC50 (CSF-1R; Table 3)	IC50 (c-Kit)	cKit Fold (c-Kit)	IC50 (FLT3)	FLT3 Fold (FLT3)	IC50 (PDGFRβ)	PDGFR-1β Fold (PDGFRβ)	EC50 ([1]; BaF3, 72 h)	EC50 (EOC2 cell)	EC50 [1]	EC50 (EOC2 cell; Mus musculus, 72 h)
COc1cnc2c(Cc3cnc(OCc4ccc([C@H]5CC5(F)F)cn4)c(OC)c3)ccnc2c1 (stereo in doubt) [Example 80]	4 nM	4 nM	214 nM	53.4 fold	> 1000 nM	>100 fold	49 nM	12.3 fold	50.7 nM	29.8 nM	–	–
COc1cnc2c(Cc3cnc(OCc4ccc([C@H]5CC5(F)F)cn4)c(OC)c3)ccnc2c1 (stereo in doubt) [Example 81]	5.1 nM	5.1 nM	> 1000 nM	>100 fold	> 1000 nM	>100 fold	371 nM	72.7 fold	–	60.9 nM	25.8 nM	–
COc1ccc(COc2ncc(Cc3ccnc4cccnc34)cc2OC)nc1 [Example 15, 4-((5-methoxy-6-((5-methoxypyridin-2-yl)methoxy)pyridin-3-yl)methyl)-1,5-naphthyridine]	9.8 nM	9.8 nM	> 1000 nM	>100 fold	> 1000 nM	>100 fold	> 1000 nM	>100 fold	437 nM	–	–	253 nM
COc1cnc2c(Cc3cnc(OCc4ccc(C)cn4)c(OC)c3)ccnc2c1 [Example 55]	3.2 nM	3.2 nM	785 nM	>100 fold	> 1000 nM	>100 fold	322 nM	>100 fold	155 nM	–	–	45.4 nM
COc1cnc2c(Cc3cnc(OCc4ccc(OC(F)F)cn4)c(OC)c3)ccnc2c1 [Example 56]	2.2 nM	2.2 nM	> 1000 nM	>100 fold	> 1000 nM	>100 fold	312 nM	>100 fold	131 nM	–	–	31.2 nM
COc1cnc2c(Cc3cnc(OCc4ccc(C5CC5)cn4)c(OC)c3)ccnc2c1 [Example 59]	4.4 nM	4.4 nM	> 1000 nM	>100 fold	> 1000 nM	>100 fold	349 nM	79 fold	41.5 nM	–	–	42.3 nM
COc1cnc2c(Cc3cnc(OCc4ccc(C5CC5(F)F)cn4)c(OC)c3)ccnc2c1 (centres unmarked) [Example 66]	3 nM	3 nM	948 nM	>100 fold	> 1000 nM	>100 fold	73.6 nM	24.5 fold	89.1 nM	–	–	62.7 nM
COc1cnc2c(Cc3cnc(OCc4cc5n(n4)CCC5)c(OC)c3)ccnc2c1 [Example 72]	2.2 nM	2.2 nM	> 1000 nM	>100 fold	> 1000 nM	>100 fold	> 1000 nM	>100 fold	74.6 nM	–	–	58.9 nM
[2H]C([2H])([2H])Oc1cc(Cc2ccnc3cc(OC)cnc23)cnc1OCc1ccc(OC)cn1 [Example 74]	3.3 nM	3.3 nM	> 1000 nM	>100 fold	> 1000 nM	>100 fold	> 1000 nM	>100 fold	100 nM	–	–	33.3 nM
[2H]C([2H])([2H])Oc1ccc(COc2ncc(Cc3ccnc4cc(OC)cnc34)cc2OC)nc1 [Example 78]	6.7 nM	6.7 nM	> 1000 nM	>100 fold	> 1000 nM	>100 fold	947 nM	>100 fold	143 nM	–	–	48.4 nM
[2H]C([2H])([2H])Oc1cnc2c(Cc3cnc(OCc4ccc(OC)cn4)c(OC)c3)ccnc2c1 [Example 79]	3.6 nM	3.6 nM	> 1000 nM	>100 fold	> 1000 nM	>100 fold	684 nM	>100 fold	118 nM	–	–	60.4 nM
COc1cnc2c(Cc3cnc(OCc4cc(C)n(C)n4)c(OC)c3)ccnc2c1 [Example 82]	4.6 nM	4.6 nM	> 1000 nM	>100 fold	> 1000 nM	>100 fold	> 1000 nM	>100 fold	161 nM	–	–	116 nM
COc1cnc2c(Cc3cnc(OCc4cc(C(C)C)no4)c(OC)c3)ccnc2c1 [Example 83]	1.2 nM	1.2 nM	> 1000 nM	>100 fold	> 1000 nM	>100 fold	158 nM	>100 fold	26.7 nM	–	–	37 nM
COc1cnc2c(Cc3cnc(OCc4cnc5c(c4)OCCN5C)c(OC)c3)ccnc2c1 [Example 87]	0.83 nM	0.83 nM	> 1000 nM	>100 fold	> 1000 nM	>100 fold	208 nM	>100 fold	86.3 nM	–	–	92 nM
COc1cnc2c(Cc3cnc(OCc4cc(C)n(C5COC5)n4)c(OC)c3)ccnc2c1 [Example 88]	4.9 nM	4.9 nM	> 1000 nM	>100 fold	> 1000 nM	>100 fold	> 1000 nM	>100 fold	76.7 nM	–	–	116 nM
COc1cnc2c(Cc3cnc(OCc4cc(C(C)C)n(C)n4)c(OC)c3)ccnc2c1 [Example 93]	2.1 nM	2.1 nM	> 1000 nM	>100 fold	> 1000 nM	>100 fold	> 1000 nM	>100 fold	72.9 nM	–	–	18.3 nM
COc1ccc(COc2ncc(Cc3ccnc4cc(N(C)C)cnc34)cc2OC)nc1 [Example 100, 8-((5-methoxy-6-((5-methoxypyridin-2-yl)methoxy)pyridin-3-yl)methyl)-N,N-dimethyl-1,5-naphthyridin-3-amine]	2.2 nM	2.2 nM	875 nM	>100 fold	> 1000 nM	>100 fold	378 nM	>100 fold	17.1 nM	–	–	10 nM
COc1cnc2c(Cc3cnc(OCc4cc5n(n4)CC4CC54)c(OC)c3)ccnc2c1 (centres unmarked) [Example 101]	1.9 nM	1.9 nM	715 nM	>100 fold	> 1000 nM	>100 fold	839 nM	>100 fold	77.7 nM	–	–	48.3 nM
COc1cnc2c(Cc3cnc(OCc4cc5n(n4)C[C@H](F)C5)c(OC)c3)ccnc2c1 [Example 112]	4.7 nM	4.7 nM	> 1000 nM	>100 fold	> 1000 nM	>100 fold	874 nM	>100 fold	168 nM	–	–	102 nM
COc1cnc2c(Cc3cnc(OCc4cc5n(n4)C[C@@H](OC)C5)c(OC)c3)ccnc2c1 [Example 121]	19.9 nM	19.9 nM	> 1000 nM	>50 fold	> 1000 nM	>50 fold	> 1000 nM	>50 fold	41.1 nM	–	–	15.2 nM
COc1cnc2c(Cc3ccc4nc([C@H]5CC[C@@H](OC)CC5)cnc4c3)ccnc2c1 [Example 155]	258 nM	–	–	–	–	–	–	–	–	> 1000 nM	607 nM	–
COc1cnc2c(Cc3ccc4nc(C5CCOCC5)cn4c3)ccnc2c1 [Example 156]	> 1000 nM	–	–	–	–	–	–	–	> 1000 nM	–	–	> 1000 nM
COc1cnc2c(Cc3ccc4nc(C5CCOCC5)cnc4c3)ccnc2c1 [Example 157]	543 nM	–	–	–	–	–	–	–	> 1000 nM	–	–	> 1000 nM
COc1cnc2c(Cc3ccn4nc(C5CCOCC5)cc4c3)ccnc2c1 [Example 158, 3-methoxy-8-((2-(tetrahydro-2H-pyran-4-yl)pyrazolo[1,5-a]pyridin-5-yl)methyl)-1,5-naphthyridine]	> 1000 nM	–	–	–	–	–	–	–	> 1000 nM	–	–	> 1000 nM
